In patent publication US12673954B2 (BRISTOL-MYERS SQUIBB COMPANY, priority 2021, dated 2026):
Where two headings read alike, the source gives them in different places.

Legend:
[1] = test system: IRF pathway, THP1-Dual™ cells; test: STING reporter assay in THP1-Dual cells, IRF pathway (Lucia luciferase, QUANTI-Luc); format: cell-based, human; conditions: read-out: IRF (EC50 μM)
Outline: (§1)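 THP-1-derived dual-reporter cells treated with serially diluted compounds (final top concentration 100 μM) for 20 h at 37° C. NF-κB read as SEAP via QUANTI-Blue at OD620; IRF read as Lucia luminescence via QUANTI-Luc after 5 min. 100% activation set by 100 μM cGAMP, baseline by DMSO.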

[2] = test system: NF-κB pathway, THP1-Dual™ cells; test: STING reporter assay in THP1-Dual cells, NF-κB pathway (SEAP, QUANTI-Blue); format: cell-based, human; conditions: read-out: NFkB (EC50 μM)
Outline: as §1

[3] = Homo sapiens, THP1-Dual, 20 h, THP1-Dual cells, 10% human plasma, 20 hours, Lucia luciferase, 100% activation = 100 μM cGAMP
[4] = Homo sapiens, THP1-Dual, 20 h, THP1-Dual cells, 10% human plasma, 20 hours, SEAP, 100% activation = 100 μM cGAMP
[5] = THP1-Dual cells, 10% human plasma, 20 hours, Lucia luciferase, 100% activation = 100 μM cGAMP
[6] = THP1-Dual cells, 10% human plasma, 20 hours, SEAP, 100% activation = 100 μM cGAMP

SMILES	EC50 [1, 3] [µM]	EC50 [2, 4] [µM]	further results
O=C(OCC(F)(F)F)c1cccc2cc(CN3CCc4ccncc4C3=O)oc12 [EXAMPLE 215, 2,2,2-Trifluoroethyl 2-((1-oxo-3,4-dihydro-2,7-naphthyridin-2(1H)-yl)methyl)benzofuran-7-carboxylate]	12	14	–
CC(NC(=O)c1cnn2cccnc12)c1cc2cc(F)cc(C(=O)O[C@H](C)C(F)(F)F)c2o1 (stereo partly drawn) [EXAMPLE 325, (R)-1,1,1-Trifluoropropan-2-yl 5-fluoro-2-(1-(pyrazolo[1,5-a]pyrimidine-3-carboxamido)ethyl)benzofuran-7-carboxylate]	–	–	EC50 [1, 5]: 1.7 µM; EC50 [2, 6]: 1.4 µM
COC(=O)c1cc(F)cc2cc(Cn3cnc4ccncc4c3=O)oc12 [EXAMPLE 39, Methyl 5-fluoro-2-((4-oxopyrido[4,3-d]pyrimidin-3(4H)-yl)methyl)benzofuran-7-carboxylate]	4	3.6	–
O=C(OC1CC(F)(F)C1)c1cc(Cl)cc2cc(CNC(=O)c3cnn4cccnc34)oc12 [EXAMPLE 245, 3,3-Difluorocyclobutyl 5-chloro-2-((pyrazolo[1,5-a]pyrimidine-3-carboxamido)methyl)benzofuran-7-carboxylate]	1.8	1	–
O=C(OC1CC(F)(F)C1(F)F)c1cc(F)cc2cc(CNC(=O)c3cnn4cccnc34)oc12 (single isomer, unassigned) [EXAMPLE 321, 2,2,3,3-Tetrafluorocyclobutyl 5-fluoro-2-((pyrazolo[1,5-a]pyrimidine-3-carboxamido)methyl)benzofuran-7-carboxylate]	–	–	EC50 [1, 5]: 0.3 µM; EC50 [2, 6]: 0.38 µM
CSC(=O)c1cc(Cl)cc2cc(CNC(=O)c3cnn4cccnc34)oc12 [EXAMPLE 395]	2.1	1.9	–
CSC(=O)c1cc(F)cc2cc(CNC(=O)c3cnc4cccnn34)oc12 [EXAMPLE 383, S-Methyl 5-fluoro-2-((imidazo[1,2-b]pyridazine-3-carboxamido)methyl)benzofuran-7-carbothioate]	0.92	1.1	–
C[C@@H](OC(=O)c1c(F)ccc2cc(CNC(=O)c3cnn4cccnc34)oc12)C(F)(F)F [EXAMPLE 285, (R)-1,1,1-Trifluoropropan-2-yl 6-fluoro-2-((pyrazolo[1,5-a]pyrimidine-3-carboxamido)methyl)benzofuran-7-carboxylate]	1.4	1.9	–
C[Si](C)(C)CCSC(=O)c1cc(F)cc2c(Cl)c(CNC(=O)c3cnn4cccnc34)oc12 [EXAMPLE 392, S-(2-(Trimethylsilyl)ethyl) 3-chloro-5-fluoro-2-((pyrazolo[1,5-a]pyrimidine-3-carboxamido)methyl)benzofuran-7-carbothioate]	–	–	EC50 ([1]; Homo sapiens, THP1-Dual, 20 h): 3.4 µM; EC50 ([2]; Homo sapiens, THP1-Dual, 20 h): 2.7 µM
COC(OC(=O)c1cc(C(F)(F)F)cc2cc(CNC(=O)c3cnn4cccnc34)oc12)C(F)(F)F (single isomer, unassigned) [EXAMPLE 352, 2,2,2-Trifluoro-1-methoxyethyl 2-((pyrazolo[1,5-a]pyrimidine-3-carboxamido)methyl)-5-(trifluoromethyl)benzofuran-7-carboxylate]	–	–	EC50 [1, 5]: 1.9 µM; EC50 [2, 6]: 3.4 µM
COC(=O)c1cc(Cl)cc2cc(CNC(=O)c3cnn4cccnc34)oc12 [Example 48, Methyl 5-chloro-2-((pyrazolo[1,5-a]pyrimidine-3-carboxamido)methyl)benzofuran-7-carboxylate]	0.64	0.68	–
CC(OC(=O)c1cc(Cl)cc2cc(CNC(=O)c3cnn4cccnc34)oc12)C(F)(F)F (single isomer, unassigned) [EXAMPLE 330, 1,1,1-Trifluoropropan-2-yl 5-chloro-2-((pyrazolo[1,5-a]pyrimidine-3-carboxamido)methyl)benzofuran-7-carboxylate]	–	–	EC50 [1, 5]: 4.7 µM; EC50 [2, 6]: 5.5 µM
COC(=O)c1cc(O)cc2cc(CN3Cc4ccncc4C3=O)oc12 [EXAMPLE 104, Methyl 5-hydroxy-2-((3-oxo-1,3-dihydro-2H-pyrrolo[3,4-c]pyridin-2-yl)methyl)benzofuran-7-carboxylate]	63	37	–
COC(=O)c1cc(F)cc2cc(Cn3ccc4ccncc4c3=O)oc12 [EXAMPLE 38, Methyl 5-fluoro-2-((1-oxo-2,7-naphthyridin-2(1H)-yl)methyl)benzofuran-7-carboxylate]	2.3	2.5	–
Cc1cc(C(=O)OCC(F)(F)F)c2oc(CN3CCc4ccncc4C3=O)cc2c1 [EXAMPLE 376, 2,2,2-Trifluoroethyl 5-methyl-2-((1-oxo-3,4-dihydro-2,7-naphthyridin-2(1H)-yl)methyl)benzofuran-7-carboxylate]	19	16	–
CC(OC(=O)c1cc(Br)cc2cc(CNC(=O)c3cnn4cccnc34)oc12)C(F)(F)F (single isomer, unassigned) [EXAMPLE 341, 1,1,1-Trifluoropropan-2-yl 5-bromo-2-((pyrazolo[1,5-a]pyrimidine-3-carboxamido)methyl)benzofuran-7-carboxylate]	–	–	EC50 [1, 5]: 1.6 µM; EC50 [2, 6]: 2.5 µM
CCC(C)OC(=O)c1cccc2cc(CN3CCc4ccncc4C3=O)oc12 (racemic) [EXAMPLE 208, Sec-butyl 2-((1-oxo-3,4-dihydro-2,7-naphthyridin-2(1H)-yl)methyl)benzofuran-7-carboxylate]	33	31	–
C[C@H](NC(=O)c1cnn2cccnc12)c1oc2c(C(=O)OCC(F)(F)F)cc(F)cc2c1Cl [EXAMPLE 292, 2,2,2-Trifluoroethyl (S)-3-chloro-5-fluoro-2-(1-(pyrazolo[1,5-a]pyrimidine-3-carboxamido)ethyl)benzofuran-7-carboxylate]	1.7	1.1	–
COC(=O)c1cc(C)cc2cc(CN3CCc4ccncc4C3=O)oc12 [Example 87, Methyl 5-methyl-2-((1-oxo-3,4-dihydro-2,7-naphthyridin-2(1H)-yl)methyl)benzofuran-7-carboxylate]	5.5	5.8	–
COC(=O)c1cc(C)cc2c(Cl)c(C(C)NC(=O)c3cnn4cccnc34)oc12 (single isomer, unassigned) [EXAMPLE 120, Methyl-3-chloro-5-methyl-2-(1-(pyrazolo[1,5-a]pyrimidine-3-carboxamido)ethyl)benzofuran-7-carboxylate]	2.7	3.2	–
COC(=O)c1cccc2cc(CNC(=O)c3cnn4cccnc34)oc12 [EXAMPLE 9, Methyl 2-((pyrazolo[1,5-a]pyrimidine-3-carboxamido)methyl) benzofuran-7-carboxylate]	–	–	EC50 [1, 5]: 2.1 µM; EC50 [2, 6]: 1.8 µM
CCSC(=O)c1cc(C)cc2cc(CNC(=O)c3cnn4cccnc34)oc12 [EXAMPLE 390, S-Ethyl 5-methyl-2-((pyrazolo[1,5-a]pyrimidine-3-carboxamido)methyl)benzofuran-7-carbothioate]	0.53	0.29	–
COC(=O)c1cc(C)cc2cc(C(C)NC(=O)c3cnn4cccnc34)oc12 (racemic) [Example 96, Methyl 5-methyl-2-(1-(pyrazolo[1,5-a]pyrimidine-3-carboxamido)ethyl)benzofuran-7-carboxylate (racemic)]	1.7	2	–
